Data on 29 compounds can be found in patent publication US6620828B2, “Thiazole compounds and pharmaceutical compositions for inhibiting protein kinases and methods for their use” (Agouron Pharmaceuticals, Inc., priority 1999, dated 2003).

Holding throughout (format): biochemical
The target in one assay is T1, FL-CHK1 (Homo sapiens, UniProt O14757).
T1 construct: C-terminally His-tagged full-length human CHK1 (FL-CHK1); 6xHis (C); made in house; host or cells: baculovirus/insect cells
T1 sequence (O14757 1-476): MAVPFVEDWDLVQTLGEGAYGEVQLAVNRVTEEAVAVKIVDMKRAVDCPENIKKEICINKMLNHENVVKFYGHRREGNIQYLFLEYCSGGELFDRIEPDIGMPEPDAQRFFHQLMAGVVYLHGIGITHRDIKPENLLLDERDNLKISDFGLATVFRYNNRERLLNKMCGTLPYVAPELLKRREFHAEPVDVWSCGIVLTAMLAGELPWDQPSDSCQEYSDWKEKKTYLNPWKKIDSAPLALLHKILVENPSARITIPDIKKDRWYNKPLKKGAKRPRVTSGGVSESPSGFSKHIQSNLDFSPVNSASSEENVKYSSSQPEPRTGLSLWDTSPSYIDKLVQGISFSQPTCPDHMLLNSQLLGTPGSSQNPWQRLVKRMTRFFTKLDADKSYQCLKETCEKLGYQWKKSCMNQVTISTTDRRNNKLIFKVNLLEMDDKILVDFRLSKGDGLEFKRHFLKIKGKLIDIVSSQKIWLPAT
Briefly: CHK1 assay. The note with it: 20 μM; combinatorial library compounds. The method in brief: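 Full-length human CHK1 with C-terminal 6×His tag, made in baculovirus/insect cells, 10 nM, phosphorylating 0.125 mM Syntide-2 with 0.15 mM ATP in 50 mM Tris pH 7.5, 25 mM MgCl2, 400 mM NaCl. PK/LDH-coupled NADH oxidation read at 340 nm. Ki from initial rates over varied compound concentrations.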

Assay [1] deals with T2, phosphorylated VEGF-R2Δ50 (FLVK-P) (Homo sapiens, UniProt P35968, DEL940-989/E990V).
T2 construct: VEGF-R2Δ50 contains residues 806-939 and 990-1171; made in house; host or cells: baculovirus/insect cells
T2 sequence (P35968 with tags, fused parts or gaps DEL940-989/E990V limits assumed): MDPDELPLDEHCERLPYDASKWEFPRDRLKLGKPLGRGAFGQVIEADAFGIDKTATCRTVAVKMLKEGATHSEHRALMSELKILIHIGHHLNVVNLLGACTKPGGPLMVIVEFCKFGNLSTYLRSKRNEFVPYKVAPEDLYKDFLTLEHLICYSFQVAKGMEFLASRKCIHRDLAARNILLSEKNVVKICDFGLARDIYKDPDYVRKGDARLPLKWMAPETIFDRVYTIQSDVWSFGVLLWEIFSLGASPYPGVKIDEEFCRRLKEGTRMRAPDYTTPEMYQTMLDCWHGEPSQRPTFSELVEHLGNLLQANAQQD
Briefly: VEGF-R2 coupled spectrophotometric (FLVK-P) assay. As to conditions: combinatorial library compounds; for inhibition at 20 µM: read-out: VEGF % inhibition at 20 μM, 20 μM. The essentials: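 Baculovirus-expressed human VEGF-R2Δ50 (residues 806-939/990-1171, E990V) was autophosphorylated with 3 mM ATP, 40 mM MgCl2 for 2 h at 4° C. ADP formation was coupled via PK/LDH to NADH oxidation, read at 340 nm, with 5.1 mM poly(E4Y1), 1 mM ATP, 25 mM MgCl2, Hepes pH 7.5. Ki came from activity across compound concentrations.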

Another assay deals with T3, CDK4/Cyclin D3 complex (Homo sapiens, UniProt P11802).
T3 construct: made in house; host or cells: insect cells co-infected with baculovirus vectors
T3 sequence (P11802 whole entry): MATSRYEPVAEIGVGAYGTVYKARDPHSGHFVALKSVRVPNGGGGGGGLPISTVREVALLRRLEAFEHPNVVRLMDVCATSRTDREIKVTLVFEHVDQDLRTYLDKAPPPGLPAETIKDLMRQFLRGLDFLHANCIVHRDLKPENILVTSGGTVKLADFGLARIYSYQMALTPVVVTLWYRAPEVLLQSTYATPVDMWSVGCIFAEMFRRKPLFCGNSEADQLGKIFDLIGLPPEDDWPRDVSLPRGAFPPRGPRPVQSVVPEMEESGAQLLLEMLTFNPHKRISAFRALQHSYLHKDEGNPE
T3 sequence (P30281 whole entry partner): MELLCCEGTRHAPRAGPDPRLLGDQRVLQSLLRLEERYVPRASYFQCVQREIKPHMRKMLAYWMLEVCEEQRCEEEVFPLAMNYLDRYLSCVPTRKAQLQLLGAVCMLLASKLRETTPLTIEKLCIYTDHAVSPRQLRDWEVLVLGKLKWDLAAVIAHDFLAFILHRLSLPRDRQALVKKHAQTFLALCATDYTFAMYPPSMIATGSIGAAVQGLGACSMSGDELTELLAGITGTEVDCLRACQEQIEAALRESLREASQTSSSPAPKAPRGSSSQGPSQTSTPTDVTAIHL
Briefly: CDK4/Cyclin D assay. The note with it: 1.0 μM; combinatorial library compounds. The essentials:
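Insect-cell-expressed CDK4/cyclin D3 (50 nM) phosphorylating His-tagged Rb fragment (residues 386-928) with 25 μM [^32P]ATP in HEPES pH 7.4, MgCl2, 2% DMSO; 20 min at 30 °C, EDTA stop. Filter-captured 32P by phosphorimager; apparent Ki from competitive or tight-binding inhibition fits.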

Another assay has as its target CDK2/Cyclin A complex (Homo sapiens, UniProt P24941). Briefly: CDK2/Cyclin A assay. As to conditions: 1.0 μM; combinatorial library compounds. The method in brief:
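Radiometric assay: 150 nM CDK2/cyclin A (insect-cell CDK2, truncated cyclin A) phosphorylates His-tagged Rb fragment (residues 386-928) with 25 μM ATP plus [32P]ATP, pH 7.4 HEPES, 2% DMSO, 30 °C for 20 min. Filter-captured product counted by phosphorimager; apparent Ki from competitive or tight-binding inhibition fits.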

In the case of `Nc1nc(Nc2ccc(S(N)(=O)=O)cc2)sc1-c1nc(-c2cc(-c3ccccc3)no2)cs1`, the inhibition at 20 µM at FL-CHK1 is -1.2%; in assay [1], -1%. In addition, the inhibition at 1 µM on CDK4/Cyclin D3 complex was -0.5%; on CDK2/Cyclin A complex, 12%.
As to `CCCCCc1ccc(-c2csc(-c3sc(Nc4ccc(C(C)C)cc4)nc3N)n2)cc1`, the inhibition at 20 µM on FL-CHK1 is 0.7%; in assay [1], -14%. In addition, the inhibition at 1 µM was found to be 10.3% at CDK4/Cyclin D3 complex and 3.6% on CDK2/Cyclin A complex.
In the same order, the values of `CC(C)c1ccc(Nc2nc(N)c(-c3nc(-c4ccc(F)c(F)c4)cs3)s2)cc1` are 10.9%, 5%, 39.5% and 21.2%.
Regarding `CC(C)c1ccc(Nc2nc(N)c(-c3nc(-c4ccc(-c5ccc(Cl)cc5Cl)o4)cs3)s2)cc1`, the inhibition at 20 µM is -7.9% on FL-CHK1 and 3% in assay [1]. Besides, the values for the inhibition at 1 µM on CDK4/Cyclin D3 complex and on CDK2/Cyclin A complex were 49.7% and 15.1%, respectively.
As for `CC(C)c1ccc(Nc2nc(N)c(-c3nc(-c4ccccc4)cs3)s2)cc1` [drawing 484], the “CHK1 % Inhibition at 20 μM” value on FL-CHK1 is 4%. Besides, the “VEGF % inhibition at 20 μM” value in assay [1] is given as −4%. Besides, the “CDK4 % Inhibition at 1.0 μM” value at CDK4/Cyclin D3 complex is on record as −42.5%. Also, the inhibition at 1 µM at CDK2/Cyclin A complex amounted to 23.3%.
Consider `Nc1nc(Nc2ccc(S(N)(=O)=O)cc2)sc1-c1nc(-c2csc3ccccc23)cs1`, for which the inhibition at 20 µM was determined as 0.4% on FL-CHK1 and 10% in assay [1]. Also, the values for the inhibition at 1 µM on CDK4/Cyclin D3 complex and at CDK2/Cyclin A complex were 44.1% and 48.9%, respectively.
In the case of `COc1ccc(-c2csc(-c3sc(Nc4ccc(C(C)C)cc4)nc3N)n2)cc1` [drawing 462], the “CHK1 % Inhibition at 20 μM” value on FL-CHK1 worked out at 4.7%. For the same compound, in assay [1], the inhibition at 20 µM was determined as 19%. In addition, the inhibition at 1 µM on CDK4/Cyclin D3 complex is 60.9%; at CDK2/Cyclin A complex, 27.8%.
On to `CN(C)c1ccc(Nc2nc(N)c(-c3nc(-c4ccc(F)cc4F)cs3)s2)cc1`, for which the values for the inhibition at 20 µM (at FL-CHK1; in assay [1]) were 25.2% and 34%, respectively. For the same compound, the inhibition at 1 µM on CDK4/Cyclin D3 complex was 64.3%; on CDK2/Cyclin A complex, 20.3%.
In the same order, the values of `CC(C)c1ccc(Nc2nc(N)c(-c3nc(-c4ccc(Cl)c(Cl)c4)cs3)s2)cc1` are 0.3%, -4%, -7.9% and 10.4%.
Consider `CCN(CC)c1ccc(-c2csc(-c3sc(Nc4ccc(S(N)(=O)=O)cc4)nc3N)n2)cc1`, for which the inhibition at 20 µM worked out at 6.1% at FL-CHK1 and 10% in assay [1]. Also, the inhibition at 1 µM at CDK4/Cyclin D3 complex turned out to be 29.3%; on CDK2/Cyclin A complex, 34.8%.
Take `CC(C)c1ccc(Nc2nc(N)c(-c3nc(-c4ccc5oc6ccccc6c5c4)cs3)s2)cc1`: the results for the inhibition at 20 µM (at FL-CHK1; in assay [1]) were 18.9% and 39%, respectively. Also, the results for the inhibition at 1 µM at CDK4/Cyclin D3 complex and at CDK2/Cyclin A complex were 75.5% and -4.3%, respectively.
On the same counts, the results for `CC(=O)Oc1ccccc1-c1csc(-c2sc(Nc3ccc(N(C)C)cc3)nc2N)n1` are -4.6%, 24%, 48.5% and 27.8%.
Turning to `CN(C)c1ccc(Nc2nc(N)c(-c3nc(-c4cccc(Br)c4)cs3)s2)cc1`, the values for the inhibition at 20 µM (at FL-CHK1; in assay [1]) were 14.2% and 17%, respectively. The inhibition at 1 µM was found to be 30.1% at CDK4/Cyclin D3 complex and 29% on CDK2/Cyclin A complex.
`CC(C)c1ccc(Nc2nc(N)c(-c3nc(-c4cccc(OC(=O)c5ccccc5)c4)cs3)s2)cc1`: the inhibition at 20 µM on FL-CHK1 was found to be 8.8%; in assay [1], 5%. The inhibition at 1 µM at CDK4/Cyclin D3 complex amounted to 48%; at CDK2/Cyclin A complex it was 21.7%.
For `COc1ccc(-c2csc(-c3sc(Nc4ccc(C(C)C)cc4)nc3N)n2)cc1` [drawing 488], the “CHK1 % Inhibition at 20 μM” value on FL-CHK1 came to 14.2%. Also, in assay [1], the “VEGF % inhibition at 20 μM” value turned out to be 12%. In addition, on CDK4/Cyclin D3 complex, the “CDK4 % Inhibition at 1.0 μM” value was 79%. The “CDK2 % Inhibition at 1.0 μM” value at CDK2/Cyclin A complex came out at 38.3%.
For `Nc1nc(Nc2ccc(S(N)(=O)=O)cc2)sc1-c1nc(-c2ccc([N+](=O)[O-])cc2)cs1`, the values for the inhibition at 20 µM (on FL-CHK1; in assay [1]) were 11% and 3%, respectively. In addition, the results for the inhibition at 1 µM on CDK4/Cyclin D3 complex and on CDK2/Cyclin A complex were -16.3% and 27.7%, respectively.
Take `Nc1nc(Nc2ccc(S(N)(=O)=O)cc2)sc1-c1nc(-c2cccc(OC(=O)c3ccccc3)c2)cs1`: the inhibition at 20 µM at FL-CHK1 worked out at 6.8%; in assay [1], 43%. Moreover, the inhibition at 1 µM on CDK4/Cyclin D3 complex is -1.9%; at CDK2/Cyclin A complex it was 37.2%.
For the compound `Cc1cc(-c2csc(-c3sc(Nc4ccc(N(C)C)cc4)nc3N)n2)ccc1Cl`, the inhibition at 20 µM at FL-CHK1 came to 16.6%; in assay [1], 2%. In addition, the inhibition at 1 µM on CDK4/Cyclin D3 complex amounted to 15.2%; at CDK2/Cyclin A complex, 11.7%.
For `CCCCCc1ccc(-c2csc(-c3sc(Nc4ccc(N(C)C)cc4)nc3N)n2)cc1`, the inhibition at 20 µM at FL-CHK1 was 9.5%; in assay [1], -8%. The inhibition at 1 µM on CDK4/Cyclin D3 complex was 36.2%; on CDK2/Cyclin A complex, -6%.
In the same order, the values of `Nc1nc(Nc2ccc(S(N)(=O)=O)cc2)sc1-c1nc(-c2ccc(F)cc2)cs1` [drawing 409] are 33.7%, 43%, 61.2% and 74.7%.
Turning to `COc1ccc(-c2csc(-c3sc(Nc4ccc(N(C)C)cc4)nc3N)n2)cc1` [drawing 551], on FL-CHK1, the “CHK1 % Inhibition at 20 μM” value amounted to 34.8%. The “VEGF % inhibition at 20 μM” value in assay [1] turned out to be 23%. At CDK4/Cyclin D3 complex, the “CDK4 % Inhibition at 1.0 μM” value was found to be 83%. Further, on CDK2/Cyclin A complex, the “CDK2 % Inhibition at 1.0 μM” value stood at 29.8%.
As to `CN(C)c1ccc(Nc2nc(N)c(-c3nc(-c4ccc(-c5ccc(Cl)cc5Cl)o4)cs3)s2)cc1`, the inhibition at 20 µM at FL-CHK1 was -7.6%; in assay [1], 5%. Further, the results for the inhibition at 1 µM at CDK4/Cyclin D3 complex and at CDK2/Cyclin A complex were 35.6% and 17.7%, respectively.
On the same counts, the results for `Cc1cc(-c2csc(-c3sc(Nc4ccc(C(C)C)cc4)nc3N)n2)c(C)s1` are 27.4%, 50%, 76.5% and 17.5%.
For `COc1ccc2nc(-c3ccccc3)c(-c3csc(-c4sc(Nc5ccc(C(C)C)cc5)nc4N)n3)cc2c1`, the inhibition at 20 µM at FL-CHK1 was 14.1%; in assay [1], 15%. In addition, the inhibition at 1 µM was 85.1% at CDK4/Cyclin D3 complex and 26% on CDK2/Cyclin A complex.
As for `CC(C)c1ccc(Nc2nc(N)c(-c3nc(-c4ccc(Cl)c([N+](=O)[O-])c4)cs3)s2)cc1`, the inhibition at 20 µM at FL-CHK1 is 23.5%; in assay [1] it was 7%. For the same compound, the inhibition at 1 µM on CDK4/Cyclin D3 complex stood at 71.5%; at CDK2/Cyclin A complex it was 14.2%.
As for `COc1ccccc1-c1csc(-c2sc(Nc3ccc(S(N)(=O)=O)cc3)nc2N)n1` [drawing 394], the results for the inhibition at 20 µM (on FL-CHK1; in assay [1]) were 18.7% and 21%, respectively. Further, the inhibition at 1 µM at CDK4/Cyclin D3 complex was 16%; at CDK2/Cyclin A complex, 18.9%.
Regarding `Cc1ccc(-c2csc(-c3sc(Nc4ccc(C(C)C)cc4)nc3N)n2)cc1`, the inhibition at 20 µM is 0.8% on FL-CHK1 and -2% in assay [1]. In addition, the inhibition at 1 µM is 55.9% at CDK4/Cyclin D3 complex and 14.2% on CDK2/Cyclin A complex.
Take `CN(C)c1ccc(Nc2nc(N)c(-c3nc(-c4ccc5oc6ccccc6c5c4)cs3)s2)cc1`: the results for the inhibition at 20 µM (on FL-CHK1; in assay [1]) were 29.3% and 27%, respectively. Besides, the inhibition at 1 µM turned out to be 63.5% at CDK4/Cyclin D3 complex and 38.3% at CDK2/Cyclin A complex.
On the same counts, the results for `Cc1c(F)cc(-c2csc(-c3sc(Nc4ccc(N(C)C)cc4)nc3N)n2)cc1Cl` are 27%, 9%, 76.5% and 8.2%.
